Test results published in patent publication US10688099B2, “Methods for modulating the amount of RNA transcripts” (PTC Therapeutics, Inc., priority 2013, dated 2020).

Tested on: RNA isoforms in PNN 1-46 SMA type I patient-derived fibroblasts
Experiment: RNA Abundance Modulation (RNA isoform abundance, iFPM, HiSeq RNA sequencing)
Format: cell-based, human
Settings: 3 μM
Description: Cells from a cell line of interest are cultured in conditions sufficient to yield the number of cells capable of generating enough RNA for subsequent sequencing steps. Cells from the tested cell line are contacted with a compound described herein.
To culture said cells, they are seeded, at appropriate concentrations in a volume of media in a cell culture container and incubated for 4, 5, 6, 7, 8, 9, 10, or more hours. A concentrated solution of compound in a vehicle (e.g., DMSO) is then added in sufficient volume to result in the intended final concentration of the compound, for example 100 nM, 500 nM, 1 μM, 5 μM, 10 μM, 15 μM, 20 μM, or more. The cells may also be treated with vehicle alone, as a control. A number of replicates of each concentration or control may be made (e.g., 2 replicates). The cells are then incubated at a constant temperature appropriate for cell culture of the particular cell line (e.g., 37° C.) for 6, 12, 18, 24, 48, or more hours. After incubation, the growth medium is removed and the cells are washed with the appropriate buffer (e.g., PBS). Cells are then removed from adherence to the cell culture container by treatment with a solution containing trypsin, and the trypsin subsequently quenched with the appropriate volume of buffer (e.g., DMEM-FBS). The cells are then pelleted with gentle centrifugation (e.g., ≤90×g centrifugal force) and resuspended in a buffer to lyse the cells for extraction of RNA. The cell lysates may then be frozen (e.g., at −80° C.) or, alternately, may immediately be used in a procedure to purify the RNA (e.g. by use of the RNEASY PLUS® minikit). The RNA from cell lysates is eluted in the appropriate volume of buffer (e.g., RNEASE-FREE H2O®). The resulting purified RNA may then be sequenced (e.g., using RNASeq) or analyzed using a human exon array (e.g., by GENECHIP® human exon array) to determine changes in the RNA levels in those cells treated with compound compared to those cells treated only with DMSO. The purified RNA may also be quantified by other methods known in the art.
Using the RNA data obtained from sequencing, exon array, or other methods, a statistical analysis can reveal changes in the RNA levels of compound-treated compared with control. For example, t-test p-values may be calculated for the data obtained through sequencing and exon array methods in order to compare compound-treated cells to those treated with the DMSO control. […] Analysis of the sequencing and exon array data may then also yield predictions about the cause of the aberrant amount of an RNA transcript in the cells (e.g., perturbation of RNA splicing, RNA transcription, or RNA stability). These predictions may be further confirmed by methods known in the art. For example, RT-PCR and RT-qPCR may be used to confirm the change in amount of RNA transcripts for one or more particular transcripts of interest.
Following the methods described above in Example 1, PNN 1-46 SMA type I patient-derived fibroblasts were treated with 300 nM or 3 μM Compounds 774 and 808 in 0.5% DMSO.
700,000 cells were seeded in 10 mL of medium (DMEM plus 10% FBS) in a T-75 flask. Cells were allowed to attach for at least 4 hrs, after which 50 μL of a 200× compound solution (100% DMSO) was added to each well, and the plate was incubated at 37° C. for 24 hrs.
At the end of the incubation period, the supernatant was removed and the cells where washed with PBS. TrypLE (Invitrogen) express solution was added (e.g. 1.5 mL per one T75 flask). The flasks were incubated for 3 to 5 min at 37° C. The trypsin was then quenched, e.g., by adding 10 mL DMEM-FBS.
Next, the cells were pelleted using gentle centrifugation without exceeding 90×g centrifugal force. The supernatant was removed and the cell pellet was re-suspended in 600 μL RLT buffer (the RLT buffer was supplemented with beta-mercaptoethanol according to the RNeasy protocol manual) by pipetting up and down until the pellet was completely dissolved […]

SMILES: CCc1nc(C)cn2nc(-c3cc(=O)n4cc(C5CCN(C)CC5)cc(C)c4n3)cc12 [Compound 774]
- L2FC (x + 1) (UBE2V1 NM_022442): −1.807
- L2abs (Cpd-DMSO) (UBE2V1 NM_022442): 1.32
- abs (Cpd-DMSO) (UBE2V1 NM_022442): 2 iFPM
- amp FC (x + 1) (UBE2V1 NM_022442): 3.50
- ave Cpd (UBE2V1 NM_022442): 0 iFPM
- FC (x + 1) (UBE2V1 NM_199144): 9.0627
- L2FC (x + 1) (UBE2V1 NM_199144): 3.180
- L2abs (Cpd-DMSO) (UBE2V1 NM_199144): 3.01
- abs (Cpd-DMSO) (UBE2V1 NM_199144): 8 iFPM
- amp FC (x + 1) (UBE2V1 NM_199144): 9.06
- ave Cpd (UBE2V1 NM_199144): 8 iFPM
- FC (x + 1) (UBE2V1 NM_001032288): 1.0807
- L2FC (x + 1) (UBE2V1 NM_001032288): 0.112
- L2abs (Cpd-DMSO) (UBE2V1 NM_001032288): 8.47
- abs (Cpd-DMSO) (UBE2V1 NM_001032288): 355 iFPM
- amp FC (x + 1) (UBE2V1 NM_001032288): 1.08
- ave Cpd (UBE2V1 NM_001032288): 4751 iFPM
- FC (x + 1) (UBE2V1 NM_001257393): 0.0796
- L2FC (x + 1) (UBE2V1 NM_001257393): −3.651
- L2abs (Cpd-DMSO) (UBE2V1 NM_001257393): 3.53
- abs (Cpd-DMSO) (UBE2V1 NM_001257393): 12 iFPM
- amp FC (x + 1) (UBE2V1 NM_001257393): 12.56
- ave Cpd (UBE2V1 NM_001257393): 0 iFPM
- FC (x + 1) (UBE2V1 NM_001257394): 0.1697
- L2FC (x + 1) (UBE2V1 NM_001257394): −2.559
- L2abs (Cpd-DMSO) (UBE2V1 NM_001257394): 4.01
- abs (Cpd-DMSO) (UBE2V1 NM_001257394): 16 iFPM
- amp FC (x + 1) (UBE2V1 NM_001257394): 5.89
- ave Cpd (UBE2V1 NM_001257394): 2 iFPM
- FC (x + 1) (UBE2V1 NM_001257397): 0.5713
- L2FC (x + 1) (UBE2V1 NM_001257397): −0.808
- L2abs (Cpd-DMSO) (UBE2V1 NM_001257397): 3.18
- abs (Cpd-DMSO) (UBE2V1 NM_001257397): 9 iFPM
- amp FC (x + 1) (UBE2V1 NM_001257397): 1.75
- ave Cpd (UBE2V1 NM_001257397): 11 iFPM
- FC (x + 1) (UBE2V1 NM_001257399): 1.1595
- L2FC (x + 1) (UBE2V1 NM_001257399): 0.214
- L2abs (Cpd-DMSO) (UBE2V1 NM_001257399): 4.66
- abs (Cpd-DMSO) (UBE2V1 NM_001257399): 25 iFPM
- amp FC (x + 1) (UBE2V1 NM_001257399): 1.16
- ave Cpd (UBE2V1 NM_001257399): 182 iFPM
- FC (x + 1) (UBE2V1 NR_047554): 0.0730
- L2FC (x + 1) (UBE2V1 NR_047554): −3.777
- L2abs (Cpd-DMSO) (UBE2V1 NR_047554): 8.39
- abs (Cpd-DMSO) (UBE2V1 NR_047554): 337 iFPM
- amp FC (x + 1) (UBE2V1 NR_047554): 13.71
- ave Cpd (UBE2V1 NR_047554): 25 iFPM
- FC (x + 1) (UBE2V1 NR_047555): 0.9261
- L2FC (x + 1) (UBE2V1 NR_047555): −0.111
- L2abs (Cpd-DMSO) (UBE2V1 NR_047555): −1.09
- abs (Cpd-DMSO) (UBE2V1 NR_047555): 0 iFPM
- amp FC (x + 1) (UBE2V1 NR_047555): 1.08
- ave Cpd (UBE2V1 NR_047555): 5 iFPM
- FC (x + 1) (UBE2V1 NR_047556): 0.5268
- L2FC (x + 1) (UBE2V1 NR_047556): −0.925
- L2abs (Cpd-DMSO) (UBE2V1 NR_047556): 3.88
- abs (Cpd-DMSO) (UBE2V1 NR_047556): 15 iFPM
- amp FC (x + 1) (UBE2V1 NR_047556): 1.90
- ave Cpd (UBE2V1 NR_047556): 15 iFPM
- FC (x + 1) (UCHL5 AK225794): 0.7328
- L2FC (x + 1) (UCHL5 AK225794): −0.448
- L2abs (Cpd-DMSO) (UCHL5 AK225794): 3.79
- abs (Cpd-DMSO) (UCHL5 AK225794): 14 iFPM
- amp FC (x + 1) (UCHL5 AK225794): 1.36
- ave Cpd (UCHL5 AK225794): 37 iFPM
- FC (x + 1) (UCHL5 AK316064): 1.3941
- L2FC (x + 1) (UCHL5 AK316064): 0.479
- L2abs (Cpd-DMSO) (UCHL5 AK316064): 4.93
- abs (Cpd-DMSO) (UCHL5 AK316064): 30 iFPM
- ave Cpd (UCHL5 AK316064): 106 iFPM
- FC (x + 1) (UCHL5 BC015381): 1.2220
- L2FC (x + 1) (UCHL5 BC015381): 0.289
- L2abs (Cpd-DMSO) (UCHL5 BC015381): 1.34
- abs (Cpd-DMSO) (UCHL5 BC015381): 3 iFPM
- ave Cpd (UCHL5 BC015381): 13 iFPM
